Measurements as given in patent US20190010524A1, “BIOLOGICAL METHODS FOR PREPARING A FATTY DICARBOXYLIC ACID” (Verdezyne, Inc., priority 2012, published 2019).

Key:
[1] = tested on: sAA2178; experiment: Shake flask bioconversion of feedstocks of varying chain length (Example 72); format: cell-based, Candida; settings: for Feedstock Yield (g diacid/g added feedstock) sAA-2178: shake flask, ethyl esters 1% v/v, alkanes 3% v/v
Protocol: (§1) The bioconversion tests in this Example were undertaken following a shake flask protocol. […] The YPD contained 10 g/L yeast extract, 20 g/L peptone, and 20 g/L dextrose. These cultures were then placed in a 30° C. shaking incubator at 250 rpm for 18 to 20 hours.
(§2) After this growth phase, these cultures were used to inoculate 350 ml of SP92-glycerol media dispensed into 10-250 ml wide mouth flasks in 35 ml aliquots for each strain. The SP92-glycerol media contained 6.7 g/L yeast nitrogen base, 3 g/L yeast extract, 3 g/L ammonium sulfate, 1 g/L potassium phosphate monobasic; 1 g/L potassium phosphate, dibasic, and 75 g/L glycerol (Picataggio S., et al., Biotechnology (NY) 1992 August; 10 (8):894-8). The cultures were then placed in a 30° C. shaking incubator at 300 rpm for 20 to 24 hours.
(§3) The cells were then centrifuged for 5 minutes at 3000 rpm and the supernatant discarded. The cells were resuspended in DCA3 medium supplemented with 1.0% triton-X100. DCA3 is a 0.3 M potassium phosphate buffer, pH 7.5 containing 6.7 g/L yeast nitrogen base and 50 g/L glycerol. Variations of DCA3 media recipes are known, non-limiting examples of which include the addition of dextrose and/or glycerol, the like or combinations thereof. DCA3 media, as referred to herein, can include dextrose and/or glycerol. After re-suspension, the OD600 nm for each culture was adjusted to a common OD (based on the available OD for the strain with the least growth) and 10 ml was transferred to pre-weighed 250 ml bottom baffled shake flasks. The flasks were then reweighed to determine the starting weight of the culture. The substrate to be converted was then added at 1% v/v for ethyl esters and 3% v/v for alkanes. The increased amount of alkanes added was due to their volatility to ensure that sufficient substrate remained in solution for bioconversion. The flasks were weighed once more to determine the exact amount of substrate added to each flask and were then placed, in a 30° C. shaking incubator at 300 rpm for 4 hours. Bioconversion tests for ethyl-stearate and ethyl palmitate were performed at 35° C. due to melting point limitations for these substrates.
(§4) After 48 hours, the flasks were weighed once more to determine the weight of the final culture. The cultures were mixed well by swirling and 1 ml was transferred to a pre-weighed 15 ml falcon tube containing 0.8 ml of 6N HCl. The tube was weighed to determine the density of the final culture and this number used to determine the culture volume present at the final time point. Samples were submitted to analytical for analysis by GC.

[2] = tested on: sAA1082; experiment: as above; format: cell-based, Candida; settings: for Feedstock Yield (g diacid/g added feedstock) sAA-1082: shake flask, ethyl esters 1% v/v, alkanes 3% v/v
Protocol: as §1, §2, §3, §4

[3] = tested on: Candida strain ATTC 20962; experiment: as above; format: cell-based; settings: ethyl esters 1% v/v, alkanes 3% v/v
Protocol: as §1, §2, §3, §4

[4] = tested on: strain sAA2178; experiment: Production of DDDA with glycerol or xylose substituted for dextrose as co-feed (Example 69); format: cell-based, Candida; settings: co-feed 1.25 g/L-h; for production of DDDA: ethyl laurate feed
Protocol: A pre-culture of 80 mL SP92 in a 500 mL baffled flask with foam plugs was inoculated with 1.0 mL from a frozen glycerol stock of strain sAA2178 (beta-oxidation blocked strains plus amplified CPRB, CYP52A19, ADH2a, ADH8, and HFD2) and incubated for 24 h at 30° C. and 250 RPM. […] Growth was initiated with an inoculum of pre-culture to an/initial OD600nm=1.0 and growth conditions of 35° C., 1000 rpm, 1 vvm; pH 5.8. Growth continued for approximately 10-12 h at which point the conversion phase was initiated by a continuous feed of ethyl laurate. Ethyl laurate was fed at a rate of 0.75 g/L-h for the first 24 h; 1.28 g/L-h from 24 h to termination. In addition, a co-feed of either dextrose, glycerol or xylose was fed at a rate of 1.25 g/L-h for all fermentations.

[5] = tested on: strain sAA1082; experiment: Production of DDDA from ethyl laurate or methyl laurate feedstock (Example 67); format: cell-based, Candida
Protocol: Methyl laurate feed rates varied as follows: 0.75 g/L-h for the first 24 h; 1.2 g/L-h from 24 h to termination. Ethyl laurate was fed at a rate of 0.75 gL-h for the first 24 h; 1.28 g/L-h from 24 h to termination. […] Also at induction a co-feed of dextrose was fed at a rate of either 1.25 g/L-h or 0.9 g/L-h. In TABLE 35, data from these two ethyl laurate fermentations were compared to similar data obtained from methyl laurate fermentations run under the same conditions.

[6] = tested on: Candida tropicalis strain (sAA496); experiment: Fermentation of coconut oil to mixed diacids at different pH; format: cell-based; settings: coconut oil 80 g/L, 140 hours
Protocol: Autoclaved virgin coconut oil was added to the vessel to a final concentration of 80 g/L. A partially beta-oxidation blocked Candida tropicalis strain (sAA496) was inoculated to an initial OD600nm of 1.0 with a 5% inoculum and grown under the following conditions: 30° C. with shaking at about 1200 rpm, 1 vvm, initial pH 6.5 and initial volume of 1.0 L. The effect of pH on the distribution of fatty acid chain lengths was determined by manipulating the pH of the fermentation media. The pH of the fermentation was either 1) increased to pH 7.5 and controlled at that pH for the entire run, 2) allowed to drop-naturally due to the growth of the culture before controlling at pH 6.0 for the rest of the run; or 3) allowed to drop naturally due to the growth of the culture before controlling at pH 4.5 for the rest of the run. Samples were collected for GC analysis after 140 hours of fermentation time.

[7] = tested on: strain sAA2178; experiment: Production of DDDA using sucrose or dextrose as co-feed (Example 68); format: cell-based, Candida; settings: co-feed 0.9 g/L-h; for production of DDDA: ethyl laurate feed, three fermentations averaged
Protocol: A pre-culture of 80 mL SP92 in a 500 mL baffled flask with foam plugs was inoculated with 1.0 mL from a frozen glycerol stock of strain sAA2178 (beta-oxidation blocked strains plus amplified CPRB, CYP52A19, ADH2a, ADH8, and HFD2) and incubated for 24 h at 30° C. and 250 RPM. […] Growth was initiated an inoculum of pre-culture to an initial OD600nm=1.0 and growth conditions of 35° C., 1000 rpm, 1 vvm, pH 5.8. Growth continued for approximately 10-12 h at which point the conversion phase was initiated by a continuous feed of ethyl laurate. […] The data from three fermentations were averaged for the comparison.

[8] = tested on: strain sAA1082; settings: ethanol co-feed 0.7 g/L-h
Protocol: Fermentation medium (MM1) at pH 5.8 was filter sterilized and transferred to a sterile fermentation vessel. For the control, dextrose was used for both growth and co-feed. For the experimental fermentations, glycerol or xylose was substituted oh a g/g basis for dextrose in both the growth medium (MM1) and in the co-feed. Growth was initiated with an inoculum of pre-culture to an initial OD600nm=1.0 and growth conditions of 35° C., 1000 rpm, 1 vvm, pH 5.8. Growth continued for approximately 10-12 h at which point the conversion phase was initiated by a continuous feed of methyl laurate. Methyl laurate was fed at a rate of 0.7 g/L-h for the first 24 h; 1.2 g/L-h from 24 h to termination. In addition, a co-feed of ethanol was fed at a rate of 0.7 g/L-h. The ethanol feed-rate was reduced relative to what would normally be used for glucose (1.2 g/l-h), since ethanol is theoretically a more energy-rich compound. At induction, the temperature was changed to 30° C. and the pH was maintained at 6.0 by addition of 6N KOH.

[9] = dextrose co-feed rate 0.9 g/L-h
[10] = dextrose co-feed rate 1.25 g/L-h

CCCCCCCCCCCCCCCCCC(=O)OCC [Ethyl stearate]
% improvement over ATTC 20962 sAA-2178 [1]: 92.7% | Feedstock Yield (g diacid/g added feedstock) sAA-2178 [1]: 0.143 g diacid/g added feedstock | % improvement over ATTC 20962 sAA-1082 [2]: 14.5% | Feedstock Yield (g diacid/g added feedstock) sAA-1082 [2]: 0.085 g diacid/g added feedstock | Feedstock Yield (g diacid/g added feedstock) ATTC-20962 [3]: 0.074 g diacid/g added feedstock

O=C[C@H](O)[C@@H](O)[C@H](O)CO [xylose]
HFA levels [4]: 0.20 g/L | lauric acid accumulated [4]: 19.04 g/L | production of DDDA, less than with dextrose [4]: about 75% | production of DDDA [4]: 0.211 g/L-h

CCCCCCCCCCCC(=O)OCC [Ethyl Laurate]
HFA [5, 9]: 2.48 g/L | Lauric Acid [5, 9]: 2.00 g/L | Productivity (g/L-h) [5, 9]: 0.832 g/L-h | HFA [5, 10]: 1.64 g/L | Lauric Acid [5, 10]: 0.71 g/L | Productivity (g/L-h) [5, 10]: 0.879 g/L-h | improvement in productivity over the methyl laurate fermentation with similar co-feed rate ([5]; higher dextrose feed): about 6%

O=C(O)CCCCC(=O)O [Adipic Acid]
Diacid composition (fraction of total diacids) ([6]; pH 4.5): 0.32 | Diacid composition (fraction of total diacids) ([6]; pH 6.0): 0.12 | Diacid composition (fraction of total diacids) ([6]; pH 7.5): 0.05

CCCCCCCCCCCCCCCC(=O)OCC [Ethyl palmitate]
% improvement over ATTC 20962 sAA-2178 [1]: 51.2% | Feedstock Yield (g diacid/g added feedstock) sAA-2178 [1]: 0.090 g diacid/g added feedstock | % improvement over ATTC 20962 sAA-1082 [2]: 41.8% | Feedstock Yield (g diacid/g added feedstock) sAA-1082 [2]: 0.084 g diacid/g added feedstock | Feedstock Yield (g diacid/g added feedstock) ATTC-20962 [3]: 0.059 g diacid/g added feedstock

O=C(O)CCCCCCCCC(=O)O [Sebacic Acid]
Diacid composition (fraction of total diacids) ([6]; pH 4.5): 0.00 | Diacid composition (fraction of total diacids) ([6]; pH 6.0): 0.10 | Diacid composition (fraction of total diacids) ([6]; pH 7.5): 0.17

CCCCCCCCCCCCC [n-Tridecane]
% improvement over ATTC 20962 sAA-2178 [1]: 27.7% | Feedstock Yield (g diacid/g added feedstock) sAA-2178 [1]: 0.868 g diacid/g added feedstock | % improvement over ATTC 20962 sAA-1082 [2]: 38.3% | Feedstock Yield (g diacid/g added feedstock) sAA-1082 [2]: 0.941 g diacid/g added feedstock | Feedstock Yield (g diacid/g added feedstock) ATTC-20962 [3]: 0.680 g diacid/g added feedstock

OC[C@H]1O[C@@](CO)(O[C@H]2O[C@H](CO)[C@@H](O)[C@H](O)[C@H]2O)[C@@H](O)[C@@H]1O [sucrose]
lauric acid accumulated [7]: 1.56 g/L | production of DDDA, less than with dextrose [7]: about 3% | production of DDDA [7]: 0.847 g/L-h

CCCCCCCCCCCCCCC [n-pentadecane]
% improvement over ATTC 20962 sAA-2178 [1]: 16.8% | Feedstock Yield (g diacid/g added feedstock) sAA-2178 [1]: 0.590 g diacid/g added feedstock | % improvement over ATTC 20962 sAA-1082 [2]: 33.1% | Feedstock Yield (g diacid/g added feedstock) sAA-1082 [2]: 0.673 g diacid/g added feedstock | Feedstock Yield (g diacid/g added feedstock) ATTC-20962 [3]: 0.505 g diacid/g added feedstock

O=C(O)CCCCCCC(=O)O [Suberic Acid]
Diacid composition (fraction of total diacids) ([6]; pH 4.5): 0.68 | Diacid composition (fraction of total diacids) ([6]; pH 6.0): 0.75 | Diacid composition (fraction of total diacids) ([6]; pH 7.5): 0.62

O=C[C@H](O)[C@@H](O)[C@H](O)[C@H](O)CO [dextrose]
lauric acid accumulated [7]: 0.52 g/L | production of DDDA [7]: 0.872 g/L-h | HFA levels [4]: 1.24 g/L | lauric acid accumulated [4]: 0.37 g/L | production of DDDA [4]: 0.825 g/L-h

CCCCCCCCCCCCCCCCC [n-heptadecane]
% improvement over ATTC 20962 sAA-2178 [1]: 8.6% | Feedstock Yield (g diacid/g added feedstock) sAA-2178 [1]: 0.514 g diacid/g added feedstock | % improvement over ATTC 20962 sAA-1082 [2]: 17.3% | Feedstock Yield (g diacid/g added feedstock) sAA-1082 [2]: 0.555 g diacid/g added feedstock | Feedstock Yield (g diacid/g added feedstock) ATTC-20962 [3]: 0.473 g diacid/g added feedstock

CCCCCCCCCCCC(=O)OC [Methyl Laurate]
HFA [5, 9]: 3.31 g/L | Lauric Acid [5, 9]: 8.36 g/L | Productivity (g/L-h) [5, 9]: 0.638 g/L-h | HFA [5, 10]: 3.83 g/L | Lauric Acid [5, 10]: 3.88 g/L | Productivity (g/L-h) [5, 10]: 0.832 g/L-h

CCCCCCCCCCCCCC(=O)OCC [Ethyl tetradecanoate]
% improvement over ATTC 20962 sAA-2178 [1]: 28.1% | Feedstock Yield (g diacid/g added feedstock) sAA-2178 [1]: 0.444 g diacid/g added feedstock | % improvement over ATTC 20962 sAA-1082 [2]: 16.5% | Feedstock Yield (g diacid/g added feedstock) sAA-1082 [2]: 0.404 g diacid/g added feedstock | Feedstock Yield (g diacid/g added feedstock) ATTC-20962 [3]: 0.347 g diacid/g added feedstock

CCCCCCCCCCC [n-Undecane]
% improvement over ATTC 20962 sAA-2178 [1]: 29.3% | Feedstock Yield (g diacid/g added feedstock) sAA-2178 [1]: 0.403 g diacid/g added feedstock | % improvement over ATTC 20962 sAA-1082 [2]: 23.7% | Feedstock Yield (g diacid/g added feedstock) sAA-1082 [2]: 0.386 g diacid/g added feedstock | Feedstock Yield (g diacid/g added feedstock) ATTC-20962 [3]: 0.312 g diacid/g added feedstock

OCC(O)CO [glycerol]
HFA levels [4]: 0.33 g/L | lauric acid accumulated [4]: 12.28 g/L | production of DDDA, less than with dextrose [4]: about 60% | production of DDDA [4]: 0.327 g/L-h

O=C(O)CCCCCCCCCCC(=O)O [C12 Diacid, dodecanedioic acid]
Diacid composition (fraction of total diacids) ([6]; pH 4.5): 0.00 | Diacid composition (fraction of total diacids) ([6]; pH 6.0): 0.03 | Diacid composition (fraction of total diacids) ([6]; pH 7.5): 0.16

CCO [ethanol]
accumulation of HFA [8]: 5.3 g/L | accumulation of lauric acid [8]: 8.5 g/L | accumulation of methyl laurate [8]: 38 g/L | DDDA productivity ([8]; methyl laurate feed): 0.446 gL
